# “Also recorded” adds a separate entry of the source.
# What was measured:
# [1] = Storage at defined relative atmospheric humidity (approx. 75% or 95%, then approx. 4%) with thermogravimetric analysis, weighing and X-ray powder diffractometry; format: physicochemical; settings: for % pt (middle) / % pt after / % pt during: vs before storage; for Form middle / Form after / Form during: X-ray powder diffractometry; for Laboratory after: storage step approx. 4 (±5) % r.h. approx. 20 h; for Laboratory during %: storage step approx. 75 (±5) % r.h. approx. 7 days; for Laboratory during: storage step approx. 95 (±5) % r.h. approx. 7 days
# Description: Storage of the hydrochloride salts, which are not according to the invention (identified H1 to H3 in the following examples of compounds; for the synthesis see the subsequent experimental part), at room temperature over saturated sodium chloride solution results in a relative atmospheric humidity of approx. 75% (±5%). Storage of the samples at room temperature over saturated potassium sulfate solution results in a relative atmospheric humidity of approx. 95% (±5%).
# Storage of the samples at room temperature over drying beads (blau+, Engelhardt, Nienburg) results in a relative atmospheric humidity of approx. 4% (±5%).
# The samples were stored at approx. 75% relative atmospheric humidity for approx. 8.5 days. The samples were then stored at a relative atmospheric humidity of approx. 4% for a further approx. 6 h.
# They were analyzed for their loss in weight by means of thermogravimetric analyses (amount of sample approx. 5-20 mg, heating rate approx. 10 K/min, heating range from approx. 25° C. to approx. 240° C.).
# The approximate difference in the moisture content (in percentage points; % pt) from after the storage to before the particular storage step is stated.
# In addition, the percentage change in the total weight of the sample occurring in the respective storage step was determined by weighing (“laboratory”).
# The crystalline form was determined by means of X-ray powder diffractometry.
# The samples were stored at approx. 95% relative atmospheric humidity for approx. 8.5 days. The samples were then stored at a relative atmospheric humidity of approx. 4% for a further approx. 6 h.
# The approximate difference in the moisture content (in percentage points; % pt) from after the storage to before the storage is stated.
# The samples were stored at approx. 75% relative atmospheric humidity for approx. 7 days. The samples were then stored at a relative atmospheric humidity of approx. 4% for a further approx. 2.5 days.
# The approximate difference in the moisture content (in percentage points; % pt) from after the storage step to before the storage is stated.
# The samples were stored at approx. 95% relative atmospheric humidity for approx. 7 days. The samples were then stored at a relative atmospheric humidity of approx. 4% for a further approx. 7 days.
# Storage of the phosphate salts I-P according to the invention, called samples in the following, at room temperature over saturated sodium chloride solution results in a relative atmospheric humidity of approx. 75 (±5) % . Storage of the samples at room temperature over saturated potassium sulfate solution results in a relative atmospheric humidity of approx. 95 (±5) %.
# Storage of the samples at room temperature over drying beads (blau+, Engelhardt, Nienburg) results in a relative atmospheric humidity of approx. 4 (±5) %.
# The samples were stored at approx. 75 (±5) % relative atmospheric humidity for approx. 8.5 days. The samples were then stored at a relative atmospheric humidity of approx. 4 (±5) % for a further approx. 6 h.
# The samples were stored at approx. 95 (±5) % relative atmospheric humidity for approx. 8.5 days. The samples were then stored at a relative atmospheric humidity of approx. 4 (±5) % for a further approx. 6 h.
# The samples were stored at approx. 75 (±5) % relative atmospheric humidity for approx. 7 days. The samples were then stored at a relative atmospheric humidity of approx. 4 (±5) % for a further approx. 20 h.
# The samples were stored at approx. 95 (±5) % relative atmospheric humidity for approx. 7 days. The samples were then stored at a relative atmospheric humidity of approx. 4 (±5) % for a further approx. 20 h.
# Sample P3 was kept in the laboratory for approx. 55 minutes under ambient conditions before the second storage step.
# The interpretation of the specified data is explained again in more detail by the example of the data for P1 given in the preceding Table 8:
# Storage of 1: • first storage step: 95% atmospheric humidity • second storage step: 4% atmospheric humidity […]
# [2] = Drying of form B of the phosphate salt in vacuo, physical form checked by X-ray powder diffractometry, thermal analysis and 1H NMR; format: physicochemical
# Description: The form B was dried for 13 hours at 40° C. in vacuo.
# The form B was dried for 24 hours at 40° C. in vacuo.
# Form B was dried at 68° C. in a drying cabinet in vacuo for 3 days.
# [3] = after approx. 75% r.h. approx. 7 days
# [4] = after approx. 95% r.h. approx. 7 days
# [5] = approx. 75% r.h. approx. 7 days, then approx. 4% approx. 2.5 days
# [6] = approx. 75% r.h. approx. 8.5 days, then approx. 4% approx. 6 h
# [7] = approx. 75% relative atmospheric humidity approx. 8.5 days, then approx. 4% approx. 6 h
# [8] = approx. 95% r.h. approx. 7 days, then approx. 4% approx. 7 days
# [9] = approx. 95% r.h. approx. 8.5 days, then approx. 4% approx. 6 h
# [10] = storage step approx. 4% r.h. approx. 2.5 days, after 75% r.h. 7 days
# [11] = storage step approx. 4% r.h. approx. 7 days, after 95% r.h. 7 days
# [12] = storage step approx. 75% r.h. approx. 7 days
# [13] = storage step approx. 95% r.h. approx. 7 days
# [14] = after approx. 75 (±5) % r.h. approx. 7 days
# [15] = after approx. 95 (±5) % r.h. approx. 7 days
# [16] = approx. 75 (±5) % r.h. approx. 7 days, then approx. 4 (±5) % approx. 20 h
# [17] = approx. 75 (±5) % r.h. approx. 8.5 days, then approx. 4 (±5) % approx. 6 h
# [18] = approx. 95 (±5) % r.h. approx. 7 days, then approx. 4 (±5) % approx. 20 h
# [19] = approx. 95 (±5) % r.h. approx. 8.5 days, then approx. 4 (±5) % approx. 6 h
Structure (SMILES),"% pt during [1, 14] [% pt]","Form during [1, 14]","% pt during [1, 15]","Form during [1, 15]","% pt after [1, 16] [% pt]","Form after [1, 16]","% pt [1, 17] [% pt]","Laboratory (percentage change in total weight by weighing) [1, 17]","Form after [1, 17]","% pt after [1, 18]","Form after [1, 18]","% pt [1, 19] [% pt]","Laboratory (percentage change in total weight by weighing) [1, 19]","Form after [1, 19]",Laboratory after ([1]; after 75% r.h. 7 days),Laboratory after ([1]; after 95% r.h. 7 days) [%],Laboratory during % [1],also measured
"COc1cccc(C2(O)CC(O)CCC2CN(C)C)c1 (centres unmarked) [Sample H1, 6-dimethylaminomethyl-1-(3-methoxyphenyl)-1,3-dihydroxy-cyclohexane]",–,–,–,–,–,–,–,–,–,–,–,–,–,–,–,–,–,"% pt (middle) [1, 3]: −2.73 % pt; Form middle [1, 3]: form A,; also recorded: form B,; also recorded: form C,; also recorded: form D; % pt (middle) [1, 4]: −4.88 % pt; Form middle [1, 4]: form B; % pt after [1, 5]: 0.53 % pt; Form after [1, 5]: form B,; also recorded: form A; % pt (difference in the moisture content, thermogravimetry, after vs before storage) [1, 6]: −1.22 % pt; Laboratory/% (percentage change in total weight by weighing) [1, 6]: +1.14%; Form after [1, 7]: form B, further; % pt after [1, 8]: −3.84 % pt; Form after [1, 8]: form B; % pt (difference in the moisture content, thermogravimetry) [1, 9]: −4.89 % pt; Laboratory/% (percentage change in total weight by weighing) [1, 9]: +4.99%; Form after [1, 9]: form B, further; Laboratory/% (after) [1, 10]: −1.24%; Laboratory/% (after) [1, 11]: −22.76%; Laboratory/% (middle) [1, 12]: 2.89%; Laboratory/% (middle) [1, 13]: +13.72%"
"COc1cccc([C@@]2(O)C[C@H](O)CC[C@@H]2CN(C)C)c1 (racemic) [Sample P3, (1RS,3RS,6RS)-6-dimethylaminomethyl-1-(3-methoxyphenyl)-cyclohexane-1,3-diol]",−0.25,form A,+0.21 % pt,form A,−0.33,form A,−0.24,−0.47%,form A,+0.27 % pt,form A,−0.25,−0.39%,form A,−0.75%,−0.04,+0.23%,Laboratory during [1]: 5.33%
"COc1cccc([C@@]2(O)C[C@H](O)CC[C@@H]2CN(C)C)c1 (racemic) [Sample P1, (1RS,3RS,6RS)-6-dimethylaminomethyl-1-(3-methoxyphenyl)-cyclohexane-1,3-diol]",−0.21,form A,−0.19 % pt,form A,−0.04,form A,−0.05,−0.01%,form A,−0.02 % pt,form A,−0.22,+0.12%,form A,+0.07%,−0.04,−0.08%,"Weight loss TG (afterwards) ([1]; after second storage step at ca. 4% atmospheric humidity): −4.38%; Weight loss TG (intermediate) ([1]; after storage at 95% atmospheric humidity approx. 7 days): −4.55%; Weight loss TG (beforehand) ([1]; before storage, thermogravimetry approx. 25-240° C.): −4.36%"
"COc1cccc([C@@]2(O)C[C@H](O)CC[C@@H]2CN(C)C)c1 (racemic) [Sample P2, (1RS,3RS,6RS)-6-dimethylaminomethyl-1-(3-methoxyphenyl)-cyclohexane-1,3-diol]",−0.42,form A,−0.24 % pt,form A,−0.44,form A,−0.17,+0.06%,form A,−0.21 % pt,form A,−0.25,+0.02%,form A,+0.08%,−0.60,+0.02%,Laboratory during [1]: +0.52%
"COc1cccc(C2(O)CC(O)CCC2CN(C)C)c1 (centres unmarked) [Sample H3, 6-dimethylaminomethyl-1-(3-methoxyphenyl)-1,3-dihydroxy-cyclohexane]",–,–,–,–,–,–,–,–,–,–,–,–,–,–,–,–,–,"% pt (middle) [1, 3]: −4.75 % pt; Form middle [1, 3]: form B; % pt (middle) [1, 4]: −2.37 % pt; Form middle [1, 4]: form B; % pt after [1, 5]: 0.46 % pt; Form after [1, 5]: form B; % pt after [1, 8]: −0.49 % pt; Form after [1, 8]: form B; Laboratory/% (after) [1, 10]: +3.68%; Laboratory/% (after) [1, 11]: −9.19%; Laboratory/% (middle) [1, 12]: +0.02%; Laboratory/% (middle) [1, 13]: +4.34%"
"COc1cccc([C@@]2(O)C[C@H](O)CC[C@@H]2CN(C)C)c1 (racemic) [form B, (1RS,3RS,6RS)-6-dimethylaminomethyl-1-(3-methoxyphenyl)-cyclohexane-1,3-diol]",–,–,–,–,–,–,–,–,–,–,–,–,–,–,–,–,–,Change in the physical form on drying ([2]; 68° C. in a drying cabinet in vacuo for 3 days): converted into amorphous material; Change in the physical form on drying ([2]; 13 hours at 40° C. in vacuo): no changes in the physical form were observed; Change in the physical form on drying ([2]; 24 hours at 40° C. in vacuo): no changes in the physical form were observed
"COc1cccc(C2(O)CC(O)CCC2CN(C)C)c1 (centres unmarked) [Sample H2, 6-dimethylaminomethyl-1-(3-methoxyphenyl)-1,3-dihydroxy-cyclohexane]",–,–,–,–,–,–,–,–,–,–,–,–,–,–,–,–,–,"% pt (difference in the moisture content, thermogravimetry, after vs before storage) [1, 6]: −2.85 % pt; Laboratory/% (percentage change in total weight by weighing) [1, 6]: +2.61%; Form after [1, 7]: form B, further; % pt (difference in the moisture content, thermogravimetry) [1, 9]: −4.95 % pt; Laboratory/% (percentage change in total weight by weighing) [1, 9]: +4.88%; Form after [1, 9]: form B, further"

# — patent US20060211887A1, “Phosphate salts of 6-dimethylaminomethyl-1-(3-methoxyphenyl)-1,3-dihydroxy-cyclohexane compounds” (priority 2005, published 2006)
